Measurements reported in patent US20250059159A1, “PLPRO INHIBITORS” (SHANGHAI SYNERGY PHARMACEUTICAL SCIENCES CO., LTD., priority 2021, published 2025).

Target: SARS-CoV-2 PLpro (Severe acute respiratory syndrome coronavirus 2 (2019-nCoV) (SARS-CoV-2), UniProt P0DTD1)
Test: PLpro enzymatic inhibition assay (IC50 value determination)
Type: biochemical
Conditions: 60 min preincubation for covalent inhibitors, 10 min for non-covalent, read-out: Inhibition of SARS-CoV-2 PLpro IC50 range

Compound	IC50 [µM]
COC(=O)/C=C/CNC(=O)CNC(=O)CN(C(=O)Cc1ccccc1)C1CCN(C(C)c2cccc3ccccc23)CC1 (stereo not drawn) [Compound 4, methyl (E)-4-(2-(2-(N-(1-(1-(naphthalen-1-yl)ethyl)piperidin-4-yl)-2-phenylacetamido)acetamido)acetamido)but-2-enoate]	0.1 to 1
C#CCNC(=O)CNC(=O)CN(C1CCN(C(CO)c2cccc3ccccc23)CC1)S(C)(=O)=O (stereo not drawn) [Compound 143, 2-(N-(1-(2-hydroxy-1-(naphthalen-1-yl)ethyl)piperidin-4-yl)methylsulfonamido)-N-(2-oxo-2-(prop-2-yn-1-ylamino)ethyl)acetamide]	1 to 10
CC(c1cccc2ccccc12)N1CCC(N(CC(=O)NCC(=O)NC/C=C/C(N)=O)C(=O)C2CCC2)CC1 (stereo not drawn) [Compound 8, (E)-N-(2-((2-((4-amino-4-oxobut-2-en-1-yl)amino)-2-oxoethyl)amino)-2-oxoethyl)-N-(1-(1-(naphthalen-1-yl)ethyl)piperidin-4-yl)cyclobutanecarboxamide]	0.1 to 1
COC(=O)/C=C/CNC(=O)CNC(=O)CN(C(=O)C1CC1)C1CCN([C@H](C)c2cccc3ccccc23)CC1 [Compound 5, methyl (R,E)-4-(2-(2-(N-(1-(1-(naphthalen-1-yl)ethyl)piperidin-4-yl)cyclopropanecarboxamido)acetamido)acetamido)but-2-enoate]	< 0.1
C#CCNC(=O)CNC(=O)CN(C1CCN(C(C)c2cccc(-c3cccs3)c2)CC1)S(C)(=O)=O (stereo not drawn) [Compound 141, N-(2-oxo-2-(prop-2-yn-1-ylamino)ethyl)-2-(N-(1-(1-(3-(thiophen-2-yl)phenyl)ethyl)piperidin-4-yl)methylsulfonamido)acetamide]	0.1 to 1
C#CCNC(=O)CNC(=O)CN(C1CCN(C(C)c2c(F)ccc3ccccc23)CC1)S(C)(=O)=O (stereo not drawn) [Compound 83, 2-(N-(1-(1-(2-fluoronaphthalen-1-yl)ethyl)piperidin-4-yl)methylsulfonamido)-N-(2-oxo-2-(prop-2-yn-1-ylamino)ethyl)acetamide]	0.1 to 1
COC(=O)/C=C/CNC(=O)CNC(=O)[C@H](CN)NC1CCN([C@H](C)c2cccc3ccccc23)CC1 [Compound 26, methyl (E)-4-(2-((S)-3-amino-2-((1-((R)-1-(naphthalen-1-yl)ethyl)piperidin-4-yl)amino)propanamido)acetamido)but-2-enoate]	0.1 to 1
C#CCNC(=S)CNC(=O)CN(C1CCN(C(C)c2cccc3ccccc23)CC1)S(C)(=O)=O (stereo not drawn) [Compound 164, 2-(N-(1-(1-(naphthalen-1-yl)ethyl)piperidin-4-yl)methylsulfonamido)-N-(2-(prop-2-yn-1-ylamino)-2-thioxoethyl)acetamide]	< 0.1
C#CCNC(=O)CNC(=O)CN(C1CCN(C(C)c2cccc(C)c2C)CC1)S(C)(=O)=O (stereo not drawn) [Compound 99, 2-(N-(1-(1-(2,3-dimethylphenyl)ethyl)piperidin-4-yl)methylsulfonamido)-N-(2-oxo-2-(prop-2-yn-1-ylamino)ethyl)acetamide]	< 0.1
CC(c1cccc2ccccc12)N1CCC(N(CC(=O)NCC(=O)NCC(=O)CF)S(C)(=O)=O)CC1 (stereo not drawn) [Compound 132, N-(3-fluoro-2-oxopropyl)-2-(2-(N-(1-(1-(naphthalen-1-yl)ethyl)piperidin-4-yl)methylsulfonamido)acetamido)acetamide]	< 0.1
C#CCNC(=O)CNC(=O)CN(C1CCN([C@H](C)c2cccc3ccccc23)CC1)S(=O)(=O)N1CCC(C(N)=O)C1 (stereo partly drawn) [Compound 137, 1-(N-(1-((R)-1-(naphthalen-1-yl)ethyl)piperidin-4-yl)-N-(2-oxo-2-((2-oxo-2-(prop-2-yn-1-ylamino)ethyl)amino)ethyl)sulfamoyl)pyrrolidine-3-carboxamide]	< 0.1
C#CCNC(=O)CNC(=O)CN(C1CCN([C@H](C)c2cccc3ccccc23)CC1)S(N)(=O)=O [Compound 145, (R)-2-((1-(1-(naphthalen-1-yl)ethyl)piperidin-4-yl)(sulfamoyl)amino)-N-(2-oxo-2-(prop-2-yn-1-ylamino)ethyl)acetamide 2,2,2-trifluoroacetate]	< 0.1
COC(=O)/C=C/CNC(=O)c1nnc(CNC(=O)CN(C2CCN(C(C)c3cccc4ccccc34)CC2)S(C)(=O)=O)o1 (stereo not drawn) [Compound 136, methyl (E)-4-(5-((2-(N-(1-(1-(naphthalen-1-yl)ethyl)piperidin-4-yl)methylsulfonamido)acetamido)methyl)-1,3,4-oxadiazole-2-carboxamido)but-2-enoate]	0.1 to 1
C#CCNC(=O)CNC(=O)CN(C1CCN(C(C)c2cccc3ccccc23)CC1)S(C)(=O)=O (stereo not drawn) [Compound 97, 2-(N-(1-(1-(naphthalen-1-yl)ethyl)piperidin-4-yl)methylsulfonamido)-N-(2-oxo-2-(prop-2-yn-1-ylamino)ethyl)acetamide]	< 0.1
COC(CNC(=O)CNC(=O)CN(C1CCN(C(C)c2cccc3ccccc23)CC1)S(C)(=O)=O)OC (stereo not drawn) [Compound 154, N-(2,2-dimethoxyethyl)-2-(2-(N-(1-(1-(naphthalen-1-yl)ethyl)piperidin-4-yl)methylsulfonamido)acetamido)acetamide]	1 to 10
C#CCNC(=O)CNC(=O)CN(C1CCN([C@@H](C)c2cccc3ccccc23)CC1)S(C)(=O)=O [Compound 89, (S)-2-(N-(1-(1-(naphthalen-1-yl)ethyl)piperidin-4-yl)methylsulfonamido)-N-(2-oxo-2-(prop-2-yn-1-ylamino)ethyl)acetamide]	< 0.1
CC(c1cccc2ccccc12)N1CCC(N(CC(=O)NCC(=O)NC/C=C/C(N)=O)S(C)(=O)=O)CC1 (stereo not drawn) [Compound 159, (E)-4-(2-(2-(N-(1-(1-(naphthalen-1-yl)ethyl)piperidin-4-yl)methylsulfonamido)acetamido)acetamido)but-2-enamide]	0.1 to 1
C#CC(C)(C)CNC(=O)CNC(=O)CN(C1CCN(C(C)c2cccc3ccccc23)CC1)S(C)(=O)=O (stereo not drawn) [Compound 156, N-(2,2-dimethylbut-3-yn-1-yl)-2-(2-(N-(1-(1-(naphthalen-1-yl)ethyl)piperidin-4-yl)methylsulfonamido)acetamido)acetamide]	1 to 10
C#CCNC(=O)CNC(=O)CN(C1CCN(C(c2cccc3ccccc23)C(F)(F)F)CC1)S(C)(=O)=O (stereo not drawn) [Compound 100, N-(2-oxo-2-(prop-2-yn-1-ylamino)ethyl)-2-(N-(1-(2,2,2-trifluoro-1-(naphthalen-1-yl)ethyl)piperidin-4-yl)methylsulfonamido)acetamide]	0.1 to 1
C#CCNC(=O)CNC(=O)CN(C1CCN(C(C)c2cccc3ccccc23)CC1)S(=O)(=O)N1CCCC1 (stereo not drawn) [Compound 98, 2-(N-(1-(1-(naphthalen-1-yl)ethyl)piperidin-4-yl)pyrrolidine-1-sulfonamido)-N-(2-oxo-2-(prop-2-yn-1-ylamino)ethyl)acetamide]	< 0.1
C#CCNC(=O)CNC(=O)[C@@H]1CNS(=O)(=O)N1C1CCN([C@H](C)c2cccc3ccccc23)CC1 [Compound 92, (S)-2-(1-((R)-1-(naphthalen-1-yl)ethyl)piperidin-4-yl)-N-(2-oxo-2-(prop-2-yn-1-ylamino)ethyl)-1,2,5-thiadiazolidine-3-carboxamide 1,1-dioxide 2,2,2-trifluoroacetate]	1 to 10
COC(=O)/C=C/CNC(=O)CNC(=O)CN(C1CCN([C@H](C)c2cccc3ccccc23)CC1)S(=O)(=O)NC(=O)OC(C)(C)C [Compound 23, methyl (R,E)-4-(2-(2-((N-(tert-butoxycarbonyl)sulfamoyl)(1-(1-(naphthalen-1-yl)ethyl)piperidin-4-yl)amino)acetamido)acetamido)but-2-enoate]	0.1 to 1
COC(=O)/C=C/CNC(=O)CNC(=O)CN(C1CCN([C@H](C)c2cccc3ccccc23)CC1)S(N)(=O)=O [Compound 22, methyl (R,E)-4-(2-(2-((1-(1-(naphthalen-1-yl)ethyl)piperidin-4-yl)(sulfamoyl)amino)acetamido)acetamido)but-2-enoate]	< 0.1
C[C@H](c1cccc2ccccc12)N1CCC(N(CC(=O)NCC(=O)NCC=O)S(C)(=O)=O)CC1 [Compound 64, (R)-2-(N-(1-(1-(naphthalen-1-yl)ethyl)piperidin-4-yl)methylsulfonamido)-N-(2-oxo-2-((2-oxoethyl)amino)ethyl)acetamide]	< 0.1
C#CCNC(=O)CNC(=O)CN(C1CCN(C(C)c2ccccc2F)CC1)S(C)(=O)=O (stereo not drawn) [Compound 129, 2-(N-(1-(1-(2-fluorophenyl)ethyl)piperidin-4-yl)methylsulfonamido)-N-(2-oxo-2-(prop-2-yn-1-ylamino)ethyl)acetamide]	0.1 to 1
C#CCNC(=O)CNC(=O)CN(C1CCN(C(C)c2cccc(C)c2Cl)CC1)S(C)(=O)=O (stereo not drawn) [Compound 142, 2-(N-(1-(1-(2-chloro-3-methylphenyl)ethyl)piperidin-4-yl)methylsulfonamido)-N-(2-oxo-2-(prop-2-yn-1-ylamino)ethyl)acetamide]	0.1 to 1
COC(=O)/C=C/CNC(=O)CNC(=O)CN(C(=O)C(C)C)C1CCN([C@H](C)c2cccc3ccccc23)CC1 [Compound 17, methyl (R,E)-4-(2-(2-(N-(1-(1-(naphthalen-1-yl)ethyl)piperidin-4-yl)isobutyramido)acetamido)acetamido)but-2-enoate]	0.1 to 1
C#CCNC(=O)CNC(=O)CN(C1CCN(C(CF)c2cccc3ccccc23)CC1)S(C)(=O)=O (stereo not drawn) [Compound 144, 2-(N-(1-(2-fluoro-1-(naphthalen-1-yl)ethyl)piperidin-4-yl)methylsulfonamido)-N-(2-oxo-2-(prop-2-yn-1-ylamino)ethyl)acetamide]	1 to 10
C#CCNC(=O)CNC(=O)CNC1CCN([C@H](C)c2cccc3ccccc23)CC1 [Compound 12, (R)-2-((1-(1-(naphthalen-1-yl)ethyl)piperidin-4-yl)amino)-N-(2-oxo-2-(prop-2-yn-1-ylamino)ethyl)acetamide]	0.1 to 1
C#CCNC(=O)CCC(=O)CN(C1CCN([C@H](C)c2cccc3ccccc23)CC1)S(C)(=O)=O [Compound 81, (R)-5-(N-(1-(1-(naphthalen-1-yl)ethyl)piperidin-4-yl)methylsulfonamido)-4-oxo-N-(prop-2-yn-1-yl)pentanamide]	1 to 10
